Experimental data: patent US10500261B2 (priority 2014, dated 2019)
“Also recorded” adds a separate entry of the source.

Tests used:
[1] = tested on: HS23/36 CPS conjugate antisera; type: binding, rabbit
[2] = tested on: HS3 CPS conjugate antisera; type: binding, mouse
[3] = tested on: HS4 CPS conjugate antisera; type: binding, rabbit
[4] = tested on: HS1 CPS conjugate antisera; type: binding, mouse

| Compound | recognition by HS23/36 CPS-CRM197 conjugate antiserum [1] | recognition by HS3 CPS-CRM197 conjugate antiserum [2] | recognition by HS4 CPS-CRM197 conjugate antiserum [3] | recognition by HS1 CPS-CRM197 conjugate antiserum [4] |
| --- | --- | --- | --- | --- |
| COc1ccc(O[C@H]2O[C@H](COP(N)(=O)OC)[C@H](O)[C@H](O)[C@H]2O)cc1 (stereo partly drawn) [MeOPN→6-α-D-Galp-(1→OMP, 4-Methoxyphenyl 6-O-methyl-phosphoramidate-α-D-galactopyranoside] | recognized; also recorded: strongly recognized; also recorded: detected | did not react | elicited a response equivalent to anti-HS23/36 CRM197 conjugate; also recorded: strongly recognized | reacted to MeOPN-6-Gal, although to a somewhat lesser extent; also recorded: weaker intensity |
| COc1ccc(O[C@H]2O[C@H](CO)[C@H](O)[C@H](O)[C@H]2O)cc1 [α-D-Gal-(1-OMP, 4-methoxyphenyl-α-D-galactopyranoside, reference compound] | No reaction was observed | – | – | – |
